Assays:
[1] = test system: Ba/F3 (Δ19del/T790M/C797S) xenograft; test: In vivo efficacy (1): Ba/F3 (Δ19del/T790M/C797S) subcutaneous xenograft (CDX) in BALB/c nude mice;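 also: female nude mice, dosing begun at mean tumor size near 80–120 mm^3, tumors measured by caliper twice weekly, volume in mm^3 computed as 0.5×long×short diameter squared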
Experimental: BALB/c nude mice, female, 6-8 weeks old, 18-20 g of body weight, were housed in SPF-grade environment, and each cage was individually ventilated (5 mice per cage). […] A total of 48 mice purchased from Beijing Weitonglihua company were used for the study. Each mouse was implanted with cells at the right flank, for tumor growth. The experiment was started when the average tumor volume reached approximately 80-120 mm^3. […] Tumor volume was measured twice a week with a two-dimensional caliper, measured in mm^3 and calculated by the following formula: V=0.5a×b^2, wherein a and b are the long and short diameters of the tumor, respectively. Antitumor efficacy was determined by dividing the average increase of the tumor volume of the animals treated with the compound by the average increase of the tumor volume of the untreated animals.

[2] = test system: Ba/F3 (EGFR Δ19del/T790M/C797S) cells; test: Anti-proliferation experiment on cells (2), Ba/F3 (EGFR Δ19del/T790M/C797S); format: cell-based; details: Ba/F3 EGFR, 72 h; Ba/F3 cells, 3 days; read-out: anti-proliferation effect on cells Ba/F3(Δ19del/T790M/C797S) IC50
Experimental: The compounds ware transferred to a 384-well plate, with 125 nL of compound per well. […] After 3 days, 25 μL of detection reagent was added. The plate was incubated at room temperature for 10 minutes and then read with Envision.

**Q.** Which results are given for `COc1cc(N2CCC(N3CCN(C)CC3)CC2)ccc1Nc1ncc(Cl)c(Nc2ccccc2P(C)(C)=O)n1` [Birgatinib, reference compound]?
**A.** TGI (the tumor inhibition value) ([1]; 15 mg/kg oral daily, 13 consecutive days): 8.6%; Tumor volume Day 0 ([1]; 15 mg/kg/day oral, Day 0): 84 mm^3; Tumor volume Day 2 ([1]; 15 mg/kg/day oral, Day 2): 124 mm^3; Tumor volume Day 5 ([1]; 15 mg/kg/day oral, Day 5): 292 mm^3; Tumor volume Day 8 ([1]; 15 mg/kg/day oral, Day 8): 477 mm^3; Tumor volume Day 10 ([1]; 15 mg/kg/day oral, Day 10): 646 mm^3; Tumor volume Day 12 ([1]; 15 mg/kg/day oral, Day 12): 880 mm^3; Tumor volume Day 13 ([1]; 15 mg/kg/day oral, Day 13): 965 mm^3

**Q.** How did the IC50 [2] turn out when `COc1cc(N2CCC3(CCN(C)CC3)CC2)c(Cl)cc1Nc1ncc(Cl)c(Nc2ccc3cccnc3c2P(C)(C)=O)n1` [Compound 10] was run?
**A.** The IC50 was 6030 nM.

**Q.** Which IC50 [2] does the source give for `COc1cc(N2CCC(N3CCN(C)CC3)CC2)c(Cl)cc1Nc1ncc(Cl)c(Nc2ccc3ccccc3c2P(C)(C)=O)n1` [Compound 11] here?
**A.** The IC50 was 180 nM.

**Q.** `COc1cc(N2CCC3(CCN(C)CC3)CC2)c(Cl)cc1Nc1ncc(Cl)c(Nc2ccc3c(c2P(C)(C)=O)C(=O)CC3)n1` [Compound 14] was tested. Which IC50 [2] did it give?
**A.** Its IC50 is 351 nM.

**Q.** For `COc1cc(N2CCC3(CC2)CN(C)C3)c(C)cc1Nc1ncc(Cl)c(Nc2ccc3c(ccn3C)c2P(C)(C)=O)n1` [Compound 15], which IC50 [2] is on record?
**A.** The IC50 was 583 nM.

**Q.** Which IC50 [2] does the source give for `COc1cc(N2CCC3(CC2)CN(C)C3)c(C)cc1Nc1nc(Nc2ccc3ccccc3c2P(C)(C)=O)c2cc[nH]c2n1` [Compound 22] here?
**A.** Its IC50 is 249 nM.

**Q.** With `COc1cc(N2CCC3(CC2)CN(C)C3)c(C)cc1Nc1ncc(C(C)=O)c(Nc2ccc3ccccc3c2P(C)(C)=O)n1` [Compound 24] as the compound, how does the IC50 [2] read?
**A.** The IC50 was 4080 nM.

**Q.** Which IC50 [2] does the source give for `COc1cc(N2CCC3(CC2)CN(C)C3)c(C)cc1Nc1ncc(-c2nnc(C)o2)c(Nc2ccc3ccccc3c2P(C)(C)=O)n1` [Compound 27] here?
**A.** Its IC50 is 2710 nM.

**Q.** With `COc1cc(N2CCC3(CC2)CN(CCO)C3)c(C)cc1Nc1ncc(Cl)c(Nc2ccc3ccccc3c2P(C)(C)=O)n1` [Compound 30] as the compound, how does the IC50 [2] read?
**A.** The IC50 was 290 nM.

**Q.** `COc1cc(N2CCC3(CC2)CN(C(C)C)C3)c(C)cc1Nc1ncc(Cl)c(Nc2ccc3sccc3c2P(C)(C)=O)n1` [Compound 31] was tested. Which IC50 [2] did it give?
**A.** The IC50 was 242 nM.

**Q.** Which IC50 [2] does the source give for `COc1cc(N2CCC3(CC2)CN(C(C)C)C3)c(C)cc1Nc1ncc(Br)c(Nc2ccc3ccccc3c2P(C)(C)=O)n1` [Compound 33] here?
**A.** The IC50 was 162 nM.

**Q.** For `COc1cc(N2CCC(N3CCN(C)CC3)CC2)ccc1Nc1ncc(Cl)c(Nc2ccc3c(c2P(C)(C)=O)CCC3)n1` [Compound 35], which IC50 [2] is on record?
**A.** Its IC50 is 533 nM.

**Q.** How did the IC50 [2] turn out when `COc1cc(N2CCC(N3CCN(C)CC3)CC2)ccc1Nc1ncc(Br)c(Nc2ccc3c(c2P(C)(C)=O)CCC3)n1` [Compound 38] was run?
**A.** The IC50 was 371 nM.

**Q.** With `COc1cc(N2CCC(N3CCN(C)CC3)CC2)ccc1Nc1ncc(Cl)c(Nc2ccc3scnc3c2P(C)(C)=O)n1` [Compound 42] as the compound, how does the IC50 [2] read?
**A.** The IC50 was 442 nM.

**Q.** `COc1cc(N2CCC(N3CCN(C)CC3)CC2)ccc1Nc1ncc(Cl)c(Nc2ccc3cccnc3c2P(C)(C)=O)n1` [Compound 43] was tested. Which IC50 [2] did it give?
**A.** The IC50 was 496 nM.

**Q.** With `COc1cc(N2CCC(N3CCN(C)CC3)CC2)c(C)cc1Nc1ncc(C)c(Nc2ccc3nccnc3c2P(C)(C)=O)n1` [Example 48] as the compound, how does the IC50 [2] read?
**A.** Its IC50 is 152 nM.

**Q.** For `COc1cc(N2CCC(N3CCN(C)CC3)CC2)c(C)cc1Nc1ncc(Br)c(Nc2ccc3scnc3c2P(C)(C)=O)n1` [Example 51], which IC50 [2] is on record?
**A.** The IC50 was 36 nM.

**Q.** How did the IC50 [2] turn out when `COc1cc(N2CCC(N3CCN(C)CC3)CC2)c(Cl)cc1Nc1ncc(Br)c(Nc2ccc3nccnc3c2P(C)(C)=O)n1` [Example 54] was run?
**A.** The IC50 was 39 nM.

**Q.** With `COc1cc(N2CCC3(CCN(C)CC3)CC2)c(C)cc1Nc1ncc(Br)c(Nc2ccc3nccnc3c2P(C)(C)=O)n1` [Example 57] as the compound, how does the IC50 [2] read?
**A.** Its IC50 is 26.8 nM.

**Q.** For `CCc1cc(Nc2ncc(Br)c(Nc3ccc4nccnc4c3P(C)(C)=O)n2)c(OC)cc1N1CCC2(CCN(C)CC2)CC1` [Example 58], which IC50 [2] is on record?
**A.** Its IC50 is 18.6 nM.
